# From patent US20230278266A1, “MICRONEEDLE ARRAYS FORMED FROM POLYMER FILMS” (TransDerm, Inc., priority 2007, published 2023)
# System: fresh human skin explant
# Assay: Gentian violet delivery into excised human skin explant by loaded microneedle array
# Type: in vitro ADME
# Details: human skin explant from abdominoplasty, red fluorescence filters
# Source text: FIGS. 3A and 3B show cross-sections of excised human skin showing penetration by needles loaded with gentian violet. […] The sample was sectioned at an angle nearly parallel to the needle array geometry, allowing observation of multiple needles. The delivery device backing material is visible as a layer between the OCT and the skin sample. The left needle is itself cross-sectioned, showing the gentian violet solution loaded into the needle shaft. The middle needle appears to penetrate both the stratum corneum and the epidermis, with the needle tip in full contact with the dermis. A third needle (on the right) is visible but is out of the focal plane. […] The Gentian violet was detected using a fluorescent microscope under red fluorescence filters (excitation 546 nm; emission 580 nm). The skin section was stained with DAPI to allow nuclei visualization.
# A microneedle array in the transdermal delivery device loaded with gentian violet solution was applied to fresh human skin explant (resulting from abdominoplasty procedure) and immediately placed into tissue freezing medium (OCT) and frozen to -28° C. The sample was sectioned at an angle nearly parallel to the needle array geometry, and multiple needles were observed (FIG. 3). In FIG. 3, the microneedle array transdermal delivery device backing material is visible as a layer between the OCT and the skin sample. […]
smiles,measurement,value
CN(C)c1ccc(C(=C2C=CC(=[N+](C)C)C=C2)c2ccc(N(C)C)cc2)cc1 [gentian violet],"skin layer reached, fluorescence microscopy of skin section",delivered to human epidermis and dermis
